# Results published in ChEMBL document CHEMBL3751693, “Synthesis, antimicrobial evaluation and molecular modeling of 5-hydroxyisoquinolinium salt series; the effect of the hydroxyl moiety” (Bioorg Med Chem, 2016).
# Columns and labels:
# Pseudomonas aeruginosa [1] = assay: Antimicrobial activity against clinical isolate Pseudomonas aeruginosa CCM 1961 after 120 hrs; type: functional; conditions: CCM 1961, 120 h
# Candida tropicalis [2] = assay: Antimicrobial activity against Candida tropicalis 156 after 48 hrs by spectrophotometry; type: functional; conditions: Candida tropicalis, 156, 48 h
# Escherichia coli [3] = assay: Antimicrobial activity against clinical isolate Escherichia coli CCM 4517 after 24 hrs; type: functional; conditions: CCM 4517, 24 h
# [4] = test system: Staphylococcus epidermidis; assay: Antimicrobial activity against clinical isolate Staphylococcus epidermidis H 696608 after 24 hrs; type: functional; conditions: H 696608, 24 h
# Nakaseomyces glabratus [5] = assay: Antimicrobial activity against Candida glabrata 20/I after 24 hrs by spectrophotometry; type: functional
# Klebsiella pneumoniae [6] = assay: Antimicrobial activity against clinical isolate ESBL-Klebsiella pneumoniae J 1436808 after 24 hrs; type: functional; conditions: J 1436808, 24 h
# Nakaseomyces glabratus [7] = assay: Antimicrobial activity against Candida glabrata 20/I after 48 hrs by spectrophotometry; type: functional
# Lichtheimia corymbifera [8] = assay: Antimicrobial activity against Absidia corymbifera 272 after 48 hrs by spectrophotometry; type: functional; conditions: Lichtheimia corymbifera, 272, 48 h
# Trichosporon asahii [9] = assay: Antimicrobial activity against Trichosporon asahii 1188 after 48 hrs by spectrophotometry; type: functional; conditions: Trichosporon asahii, 1188, 48 h
# [10] = test system: Trichophyton mentagrophytes; assay: Antimicrobial activity against Trichophyton mentagrophytes 445 after 120 hrs by spectrophotometry; type: functional; conditions: Trichophyton mentagrophytes, 445, 120 h
# [11] = Cytotoxicity against CHOK1 cells after 24 hrs by MTT assay; type: cell-based; conditions: Cricetulus griseus, CHO-K1, 24 h
# Pichia kudriavzevii [12] = assay: Antimicrobial activity against Candida krusei E28 after 24 hrs by spectrophotometry; type: functional; conditions: E28, 24 h
# Aspergillus fumigatus [13] = assay: Antimicrobial activity against Aspergillus fumigatus 231 after 48 hrs by spectrophotometry; type: functional; conditions: Aspergillus fumigatus, 231, 48 h
# Enterococcus sp. [14] = assay: Antimicrobial activity against clinical isolate Enterococcus sp. J 1436508 after 24 hrs; type: functional; conditions: J 1436508, 24 h
# [15] = test system: Trichophyton mentagrophytes; assay: Antimicrobial activity against Trichophyton mentagrophytes 445 after 72 hrs by spectrophotometry; type: functional; conditions: Trichophyton mentagrophytes, 445, 72 h
# Candida tropicalis [16] = assay: Antimicrobial activity against Candida tropicalis 156 after 24 hrs by spectrophotometry; type: functional; conditions: Candida tropicalis, 156, 24 h
# Lichtheimia corymbifera [17] = assay: Antimicrobial activity against Absidia corymbifera 272 after 24 hrs by spectrophotometry; type: functional; conditions: Lichtheimia corymbifera, 272, 24 h
# Staphylococcus aureus [18] = assay: Antimicrobial activity against clinical isolate Staphylococcus aureus CCM 451608 after 48 hrs; type: functional; conditions: CCM 451608, 48 h
# [19] = test system: Staphylococcus epidermidis; assay: Antimicrobial activity against clinical isolate Staphylococcus epidermidis H 696608 after 48 hrs; type: functional; conditions: H 696608, 48 h
# Staphylococcus aureus [20] = assay: Antimicrobial activity against clinical isolate Staphylococcus aureus CCM 451608 after 24 hrs; type: functional; conditions: CCM 451608, 24 h
# Trichosporon asahii [21] = assay: Antimicrobial activity against Trichosporon asahii 1188 after 24 hrs by spectrophotometry; type: functional; conditions: Trichosporon asahii, 1188, 24 h
# Pseudomonas aeruginosa [22] = assay: Antimicrobial activity against clinical isolate Pseudomonas aeruginosa CCM 1961 after 72 hrs; type: functional; conditions: CCM 1961, 72 h
# Staphylococcus aureus [23] = assay: Antimicrobial activity against clinical isolate methicillin-resistant Staphylococcus aureus H 599608 after 48 hrs; type: functional; conditions: H 599608, 48 h
# Staphylococcus aureus [24] = assay: Antimicrobial activity against clinical isolate methicillin-resistant Staphylococcus aureus H 599608 after 24 hrs; type: functional; conditions: H 599608, 24 h
# Klebsiella pneumoniae [25] = assay: Antimicrobial activity against clinical isolate ESBL-Klebsiella pneumoniae J 1436808 after 48 hrs; type: functional; conditions: J 1436808, 48 h
# Candida albicans [26] = assay: Antimicrobial activity against Candida albicans ATCC 44859 after 48 hrs by spectrophotometry; type: functional; conditions: ATCC 44859, 48 h
# Escherichia coli [27] = assay: Antimicrobial activity against clinical isolate Escherichia coli CCM 4517 after 48 hrs; type: functional; conditions: CCM 4517, 48 h
# Candida albicans [28] = assay: Antimicrobial activity against Candida albicans ATCC 44859 after 24 hrs by spectrophotometry; type: functional; conditions: ATCC 44859, 24 h
# Aspergillus fumigatus [29] = assay: Antimicrobial activity against Aspergillus fumigatus 231 after 24 hrs by spectrophotometry; type: functional; conditions: Aspergillus fumigatus, 231, 24 h
# Klebsiella pneumoniae [30] = assay: Antimicrobial activity against clinical isolate Klebsiella pneumoniae D 1175008 after 48 hrs; type: functional; conditions: D 1175008, 48 h
# Klebsiella pneumoniae [31] = assay: Antimicrobial activity against clinical isolate Klebsiella pneumoniae D 1175008 after 24 hrs; type: functional; conditions: D 1175008, 24 h
# Enterococcus sp. [32] = assay: Antimicrobial activity against clinical isolate Enterococcus sp. J 1436508 after 48 hrs; type: functional; conditions: J 1436508, 48 h
# Pichia kudriavzevii [33] = assay: Antimicrobial activity against Candida krusei E28 after 48 hrs by spectrophotometry; type: functional; conditions: E28, 48 h
smiles,measurement,setting,value
CCCCCCCCCCCC[N+](C)(C)Cc1ccccc1,MBC,Pseudomonas aeruginosa [1],7.8 µM
same,MIC,Pseudomonas aeruginosa [1],3.9 µM
same,MFC,Candida tropicalis [2],1 µM
same,MIC,Candida tropicalis [2],0.5 µM
same,MIC,Escherichia coli [3],0.5 µM
same,MIC,[4],0.5 µM
same,MIC,Nakaseomyces glabratus [5],0.5 µM
same,MIC,Klebsiella pneumoniae [6],1 µM
same,MFC,Nakaseomyces glabratus [7],0.5 µM
same,MIC,Nakaseomyces glabratus [7],0.5 µM
same,MFC,Lichtheimia corymbifera [8],7.8 µM
same,MIC,Lichtheimia corymbifera [8],7.8 µM
same,MFC,Trichosporon asahii [9],2 µM
same,MIC,Trichosporon asahii [9],2 µM
same,MFC,[10],2 µM
same,MIC,[10],1 µM
same,IC50,[11],29 µM
same,MIC,Pichia kudriavzevii [12],0.5 µM
same,MFC,Aspergillus fumigatus [13],3.9 µM
same,MIC,Aspergillus fumigatus [13],3.9 µM
same,MIC,Enterococcus sp. [14],0.5 µM
same,MIC,[15],1 µM
same,MIC,Candida tropicalis [16],0.5 µM
same,MIC,Lichtheimia corymbifera [17],7.8 µM
same,MBC,Staphylococcus aureus [18],2 µM
same,MIC,Staphylococcus aureus [18],2 µM
same,MBC,[19],0.5 µM
same,MIC,[19],0.5 µM
same,MIC,Staphylococcus aureus [20],0.5 µM
same,MIC,Trichosporon asahii [21],0.5 µM
same,MIC,Pseudomonas aeruginosa [22],3.9 µM
same,MBC,Staphylococcus aureus [23],1 µM
same,MIC,Staphylococcus aureus [23],0.5 µM
same,MIC,Staphylococcus aureus [24],0.5 µM
same,MBC,Klebsiella pneumoniae [25],1 µM
same,MIC,Klebsiella pneumoniae [25],1 µM
same,MFC,Candida albicans [26],1 µM
same,MIC,Candida albicans [26],0.5 µM
same,MBC,Escherichia coli [27],2 µM
same,MIC,Escherichia coli [27],2 µM
same,MIC,Candida albicans [28],0.5 µM
same,MIC,Aspergillus fumigatus [29],1 µM
same,MBC,Klebsiella pneumoniae [30],0.5 µM
same,MIC,Klebsiella pneumoniae [30],0.5 µM
same,MIC,Klebsiella pneumoniae [31],0.5 µM
same,MBC,Enterococcus sp. [32],1 µM
same,MIC,Enterococcus sp. [32],1 µM
same,MFC,Pichia kudriavzevii [33],0.5 µM
same,MIC,Pichia kudriavzevii [33],0.5 µM
CCCCCCCCCCCC[n+]1ccc2ccccc2c1 [LAURYL ISOQUINOLINIUM BROMIDE],MBC,Pseudomonas aeruginosa [1],250 µM
same,MIC,Pseudomonas aeruginosa [1],250 µM
same,MFC,Candida tropicalis [2],1 µM
same,MIC,Candida tropicalis [2],0.5 µM
same,MIC,Escherichia coli [3],7.8 µM
same,MIC,[4],0.5 µM
same,MIC,Nakaseomyces glabratus [5],0.5 µM
same,MIC,Klebsiella pneumoniae [6],63 µM
same,MFC,Nakaseomyces glabratus [7],1 µM
same,MIC,Nakaseomyces glabratus [7],0.5 µM
same,MFC,Lichtheimia corymbifera [8],250 µM
same,MIC,Lichtheimia corymbifera [8],250 µM
same,MFC,Trichosporon asahii [9],63 µM
same,MIC,Trichosporon asahii [9],63 µM
same,MFC,[10],16 µM
same,MIC,[10],7.8 µM
same,IC50,[11],15 µM
same,MIC,Pichia kudriavzevii [12],0.5 µM
same,MFC,Aspergillus fumigatus [13],125 µM
same,MIC,Aspergillus fumigatus [13],125 µM
same,MIC,Enterococcus sp. [14],7.8 µM
same,MIC,[15],7.8 µM
same,MIC,Candida tropicalis [16],0.5 µM
same,MIC,Lichtheimia corymbifera [17],250 µM
same,MBC,Staphylococcus aureus [18],1 µM
same,MIC,Staphylococcus aureus [18],0.5 µM
same,MBC,[19],1 µM
same,MIC,[19],0.5 µM
same,MIC,Staphylococcus aureus [20],0.5 µM
same,MIC,Trichosporon asahii [21],63 µM
same,MIC,Pseudomonas aeruginosa [22],250 µM
same,MBC,Staphylococcus aureus [23],1 µM
same,MIC,Staphylococcus aureus [23],0.5 µM
same,MIC,Staphylococcus aureus [24],0.5 µM
same,MBC,Klebsiella pneumoniae [25],125 µM
same,MIC,Klebsiella pneumoniae [25],63 µM
same,MFC,Candida albicans [26],1 µM
same,MIC,Candida albicans [26],0.5 µM
same,MBC,Escherichia coli [27],31 µM
same,MIC,Escherichia coli [27],7.8 µM
same,MIC,Candida albicans [28],0.5 µM
same,MIC,Aspergillus fumigatus [29],125 µM
same,MBC,Klebsiella pneumoniae [30],63 µM
same,MIC,Klebsiella pneumoniae [30],16 µM
same,MIC,Klebsiella pneumoniae [31],16 µM
same,MBC,Enterococcus sp. [32],63 µM
same,MIC,Enterococcus sp. [32],7.8 µM
same,MFC,Pichia kudriavzevii [33],1 µM
same,MIC,Pichia kudriavzevii [33],0.5 µM
